From the Bradley open melting point set (2014)
Where “and” joins values, the source holds several entries; their conditions need not be identical. Identical values can stand only once.

Structure (SMILES) | melting point
O=Cc1ccccc1Br [o-bromobenzaldehyde] | 22 °C
O=C(O)c1ccccc1Br [o-bromobenzoic_acid] | 149 °C
Brc1ccccc1I [o-bromoiodobenzene] | 10 °C
N#CCc1ccccc1Br [o-bromophenylacetonitrile] | -1 °C
Cc1ccccc1O [o-cresol] | 31 °C and 32 °C
N#CCc1ccccc1C#N [o-cyano_phenylacetonitrile] | 80 °C
N#Cc1ccccc1C=O [o-cyanobenzaldehyde] | 108 °C
COc1ccccc1OC [o-dimethoxybenzene] | 15 °C
Nc1ccccc1I [o-iodoaniline] | 58 °C
OCc1ccccc1I [o-iodobenzyl_alcohol] | 92 °C
Oc1ccccc1I [o-iodophenol] | 42 °C
CC(=O)c1ccccc1[N+](=O)[O-] [o-nitroacetophenone] | 30 °C
O=C(O)c1ccccc1[N+](=O)[O-] [o-nitrobenzoic_acid] | 148 °C
N#CCc1ccccc1[N+](=O)[O-] [o-nitrophenylacetonitrile] | 84 °C
O=C(O)Cc1ccccc1-c1ccccc1 [o-phenyl_phenylacetic_acid] | 116 °C
NC(=O)c1ccccc1-c1ccccc1 [o-phenylbenzamide] | 177 °C
Oc1ccccc1-c1ccccc1 [o-phenylphenol] | 60 °C
Cc1ccccc1C#N [o-tolunitrile] | 13 °C
C=Cc1ccccc1C(N)=O [o-vinylbenzamide] | 152 °C

Structure (SMILES) | melting point
C[Si]1(C)O[Si](C)(C)O[Si](C)(C)O[Si](C)(C)O1 [octamethylcyclotetrasiloxane] | 18 °C
CCCCCCCC [octane] | -57 °C and -56.8 °C
CCCCCCCC(=O)O [octanoic acid] | 16.3 °C and 17 °C
Cc1nccn1CC1CCc2c(c3ccccc3n2C)C1=O (centres undefined) [ondansetron] | 231 °C
O(c1ccccc1OC\C=C)CC(O)CNC(C)C (centres undefined) [oxprenolol] | 112 °C
O=C(c1ccc(Br)cc1)c1ccc(Br)cc1 [p,p'-dibromobenzophenone] | 175 °C
N#Cc1ccc(-c2ccc(C#N)cc2)cc1 [p,p'-dicyanobiphenyl] | 237 °C
Cc1ccc(O)cc1 [p-Cresol] | 34 °C
Nc1ccc(CO)cc1 [p-amino_benzyl_alcohol] | 75 °C
Nc1ccc(C(=O)O)c(O)c1 [p-aminosalicylic acid] | 150 °C
O=C1C=CC(=O)C=C1 [p-benzoquinone] | 114 °C
CC(=O)c1ccc(Br)cc1 [p-bromoacetophenone] | 51 °C
Nc1ccc(Br)cc1 [p-bromoaniline] | 63 °C
N#CCc1ccc(Br)cc1 [p-bromophenylacetonitrile] | 48 °C
Oc1ccc(Cl)cc1 [p-chlorophenol] | 44 °C
N#CCc1ccc(C#N)cc1 [p-cyano_phenylacetonitrile] | 100 °C
C=Cc1ccc(C#N)cc1 [p-cyanostyrene] | -15 °C
Brc1ccc(Br)cc1 [p-dibromobenzene] | 88 °C
Nc1ccc([N+](=O)[O-])cc1 [p-nitroaniline] | 150 °C

Structure (SMILES) | melting point
N#Cc1ccc([N+](=O)[O-])cc1 [p-nitrobenzonitrile] | 149 °C
O=Cc1ccc(-c2ccccc2)cc1 [p-phenylbenzaldehyde] | 60 °C
Nc1ccc(N)cc1 [p-phenylenediamine] | 140 °C
Cc1ccc(N)cc1 [p-toluidine] | 44 °C
CCCC(C)C1(CC)C(=O)NC(=O)NC1=O (centres undefined) [pentobarbital] | 130 °C
C=CCC1(c2ccccc2)C(=O)NC(=O)NC1=O [phenallymal] | 156 °C
CCC1(c2ccccc2)C(O)=NC(=O)N=C1O [phenobarbital] | 176 °C
NC(=O)Oc1ccccc1 [phenyl carbamate] | 151 °C
O=C=Nc1ccccc1 [phenyl isocyanate] | -33 °C
O=C(O)Cc1ccccc1 [phenylacetic acid] | 77.5 °C and 76.7 °C and 77 °C
O=C(O)Cc1ccccc1 [phenylacetic_acid] | 79 °C
O=[PH](O)c1ccccc1 [phenylphosphinic acid] | 84 °C
CCC1(CC)C(=O)CCNC1=O [piperidione] | 102 °C
O=Cc1ccc2c(c1)OCO2 [piperonal] | 37 °C
CCC(=O)c1ccccc1 [propiophenone] | 19 °C
CNC(=O)Oc1ccccc1OC(C)C [propoxur] | 91.5 °C
CCC(=O)O[C@](Cc1ccccc1)(c1ccccc1)[C@H](C)CN(C)C [propoxyphene] | 75.5 °C
CC1CO1 (centres undefined) [propylene oxide] | -112 °C
c1cc2ccc3cccc4ccc(c1)c2c34 [pyrene] | 156 °C

More lines, now with the values ahead:

melting point | Structure (SMILES)
184 °C | COc1ccc(C(=O)O)cc1 [p-anisic_acid]
82 °C | O=C(c1ccccc1)c1ccc(Br)cc1 [p-bromobenzophenone]
46 °C | O=Cc1ccc(Cl)cc1 [p-chlorobenzaldehyde]
33 °C | Cc1ccc(O)cc1 [p-cresol]
192 °C | N#CCc1ccc(C(=O)O)cc1 [p-cyanomethyl_benzoic_acid]
72 °C | CCOc1ccc(OCC)cc1 [p-diethoxybenzene]
60 °C | COc1ccc(OC)cc1 [p-dimethoxybenzene]
39 °C | CCOc1ccc(C(C)=O)cc1 [p-ethoxyacetophenone]
75 °C | NC(=O)c1ccc(C=O)cc1 [p-formyl_benzamide]
135 °C | NC(=O)c1ccc(CO)cc1 [p-hydroxymethyl_benzamide]
63 °C | Nc1ccc(I)cc1 [p-iodoaniline]
273 °C | O=C(O)c1ccc(I)cc1 [p-iodobenzoic_acid]
43 °C | Cc1ccc(I)cc1 [p-iodotoluene]
78 °C | CC(=O)Oc1ccc([N+](=O)[O-])cc1 [p-nitrophenyl_acetate]
29 °C | C=Cc1ccc([N+](=O)[O-])cc1 [p-nitrostyrene]
105 °C | OCc1ccc(-c2ccccc2)cc1 [p-phenylbenzyl alcohol]
-6 °C | Cc1ccc(C=O)cc1 [p-tolualdehyde]
163 °C | Cc1ccc(C(N)=O)cc1 [p-toluamide]
69 °C | Cc1ccc(S(=O)(=O)Cl)cc1 [p-toluenesulfonyl_chloride]
180 °C | Cc1ccc(C(=O)O)cc1 [p-toluic acid]
86 °C | Clc1cc(Cl)c(Cl)c(Cl)c1Cl [pentachlorobenzene]

melting point | Structure (SMILES)
53 °C | CCCCCCCCCCCCCCC(=O)O [pentadecanoic acid]
26 °C | O=Cc1c(F)c(F)c(F)c(F)c1F [pentafluorobenzaldehyde]
-130 °C | CCCCC [pentane]
-69 °C | CCCCCOCCCCC [pentyl_ether]
53 °C | CN1CCN(CCCN2c3ccccc3Sc3ccccc32)CC1 [perazine]
94 °C | OCCN1CCN(CCCN2c3ccccc3Sc3ccc(Cl)cc32)CC1 [perphenazine]
277 °C and 278 °C (2×) | c1cc2cccc3c4cccc5cccc(c(c1)c23)c54 [perylene]
134 °C | CCOc1ccc(NC(C)=O)cc1 [phenacetin] [listing 1 of 2 here]
138 °C and 135 °C (2×) | CCOc1ccc(NC(C)=O)cc1 [phenacetin] [listing 2 of 2 here]
176 °C | c1ccc2nc3ccccc3nc2c1 [phenazine]
41 °C | Oc1ccccc1 [phenol] [listing 1 of 2 here]
41 °C (3×) and 42 °C | Oc1ccccc1 [phenol] [listing 2 of 2 here]
233 °C | O=C1NN(c2ccccc2)C(=O)C1c1ccccc1 (centres undefined) [phenopyrazone]
69 °C | O=C(Oc1ccccc1)c1ccccc1 [phenyl benzoate]
42.2 °C | O=C(Oc1ccccc1)c1ccccc1O [phenyl salicylate] [listing 1 of 2 here]
43 °C | O=C(Oc1ccccc1)c1ccccc1O [phenyl salicylate] [listing 2 of 2 here]
28 °C | c1ccc(Oc2ccccc2)cc1 [phenyl_ether]
186 °C | NC(Cc1ccccc1)C(=O)O (centres undefined) [phenylalanine]
107 °C | CCCCC1C(=O)N(c2ccccc2)N(c2ccccc2)C1=O [phenylbutazone]
230 °C | O=C(O)c1ccccc1C(=O)O [phthalic acid]
100 °C | COC(=O)c1ccccc1C(N)=O [phthalic_acid,_methylester_amide]

melting point | Structure (SMILES)
210 °C | O=C(O)c1ccccc1C(=O)O [phthalic_acid]
234 °C | O=C1NC(=O)c2ccccc21 [phthalimide]
44 °C | CC(C)(O)C(C)(C)O [pinacol, anhydrous]
233 °C | O=C(O)c1ccc2c(c1)OCO2 [piperonylic acid]
106 °C | O=C(CCBr)N1CCN(C(=O)CCBr)CC1 [pipobroman]
136 °C | O=C(C1CCCCC1)N1CC(=O)N2CCc3ccccc3C2C1 (centres undefined) [praziquantel]
119 °C | CC=C1CCC2C3CCC4CC(OC(C)=O)CCC4(C)C3CCC12C (centres undefined) [pregn-17-en-3-yl acetate]
198 °C | CCCN(CCC)S(=O)(=O)c1ccc(C(=O)O)cc1 [probenecid]
228 °C | CN1CCN(CCCN2c3ccccc3Sc3ccc(Cl)cc32)CC1 [prochlorperazine]
60 °C | CC(CN1c2ccccc2Sc2ccccc21)N(C)C (centres undefined) [promethazine]
-20.7 °C | CCC(=O)O [propanoic acid]
-21 °C | CCC(=O)O [propanoic_acid]
-21 °C | CCC(=O)O [propionic acid]
96 °C | CCCOC(=O)c1ccc(O)cc1 [propyl 4-hydroxybenzoate]
96 °C | CCCOC(=O)c1ccc(O)cc1 [propyl p-hydroxybenzoate]
97 °C and 96.5 °C (2×) and 96 °C | CCCOC(=O)c1ccc(O)cc1 [propyl paraben]
-95 °C | CCCOC(C)=O [propyl_acetate]
97 °C | CCCOC(=O)c1ccc(O)cc1 [propylparaben] [listing 1 of 2 here]
96.5 °C | CCCOC(=O)c1ccc(O)cc1 [propylparaben] [listing 2 of 2 here]
190 °C and 189 °C | NC(=O)c1cnccn1 [pyrazinamide]
